Measured values from US7928095B2, “Treatment of resistant or refractory cancers with multi-arm polymeric conjugates of 7-ethyl-10-hydroxycamptothecin” (Enzon Pharmaceuticals, Inc., priority 2007, dated 2011).

Assays:
[1] = test system: refractory human HT-29 colorectal tumor; assay: Therapeutic efficacy in CPT-11 refractory human HT-29 colorectal tumor xenografted nude mice; format: in vivo
Method: Therapeutic efficacy of four-arm PET-Gly-(7-ethyl-10-hydroxycamptothecin) against a refractory human HT-29 colorectal tumor grown in nude mice was determined. […] When tumors reached an average volume of 100 mm^3, mice were treated with CPT-11 (40 mg/kg/dose; q2d×4). Mice were monitored for tumor growth. […] These mice were selected, randomized and divided into two groups. […] The drugs were administered intravenously via the tail vein.
The data in FIG. 1 represent mean±standard deviation (n=7).

[2] = test system: Human HT-29 colorectal tumors; assay: Therapeutic efficacy in HT-29 colorectal tumor xenografted mice, second round treatment after CPT-11; format: in vivo, nude mice
Method: When tumors reached an average volume of 100 mm^3, mice were treated with CPT-11 (40 mg/kg/dose; q2d×4). Mice were monitored for tumor growth. […] One group was further treated with MTD of CPT-11 (40 mg/kg/dose; q2d×5) and the other group was treated with MTD of four-arm ^40KPEG-Gly-(7-ethyl-10-hydroxycamptothecin) (10 mg/kg/dose q2d×5) starting day 16. The drugs were administered intravenously via the tail vein.
The data in FIG. 2 represent mean±standard deviation (n=10).

[3] = test system: CPT-refractory cell line (CEM/C2); conditions: CEM/C2 cells, 2 days at 37° C., MTS; FIG. 3
Method: CPT-refractory cell line (CEM/C2) and the corresponding non-refractory parent cell line (CEM) were treated with PEG-Gly-(7-ethyl-10-hydroxycamptothecin), 7-ethyl-10-hydroxycamptothecin, and CPT-11. The CEM/C2 and CEM were obtained from NCI. The CEM cell lines are acute lymphoblastic leukemia cell lines. The in vitro cytotoxicity of each drug was determined using a MTS assay. […] At the end of the incubation, MTS dye was added and incubated for 2 to 3 hours at 37° C. and formation of a colored product (formazan) was measured at 490 nm. The % viability at each drug concentration was calculated as [OD test samples−background]/[OD controls (no treatment)−background]. Sigmoidal dose response curves were generated by plotting Log (Drug) as a function of % viability (survival) and IC50 values were calculated using the GraphPad Prism software.

“four-arm ^40KPEG-Gly-(7-ethyl-10-hydroxycamptothecin) [compound 9]” was tested, and the “mice with tumors <1,650 mm^3” value ([1]; by day 72) was 58%, the “tumor volume decreased compared to day 15” value ([1]; day 42, CPT-11 refractory mice, 10 mg/kg/dose q2d×5 i.v. starting day 16) was 25% and the animals sacrificed ([1]; on day 63, n=7) was 1 of 7. The “tumor volume increased compared to day 1” value ([2]; day 54, CPT-11 sensitive mice, second round treatment q2d×5 i.v. starting day 16) was 193%, the deaths recorded ([2]; on day 61) was “No deaths” and the “potency relative to CPT-11 (cytotoxicity IC50)” value [3] was “about 10 fold”.

With CCc1c2c(nc3ccc(OC(=O)N4CCC(N5CCCCC5)CC4)cc13)-c1cc3c(c(=O)n1C2)COC(=O)[C@]3(O)CC [CPT-11, Irinotecan, reference compound] the “animals sacrificed due to excessive tumor burden (>1,650 mm^3)” value ([1]; by day 42) was 29%, the “animals sacrificed due to excessive tumor burden (>1,650 mm^3)” value ([1]; by day 54) was 100% and the “animals sacrificed due to excessive tumor burden” value ([2]; as of day 61) was 60%.
